# Reference: the kinase profiling compilation of Christmann-Franck et al. (2016)
# Where “and” joins values, the source holds several entries; their conditions need not be identical. Identical values can stand only once.
# Target: CSNK1A1 (human) (UniProt P48729)
# Assay: radiometric filter-binding kinase assay, Kinase HotSpot
# Conditions: compound 0.5 µM; ATP 10 µM
# Chain of CSNK1A1 (human) (P48729 whole entry, looked up): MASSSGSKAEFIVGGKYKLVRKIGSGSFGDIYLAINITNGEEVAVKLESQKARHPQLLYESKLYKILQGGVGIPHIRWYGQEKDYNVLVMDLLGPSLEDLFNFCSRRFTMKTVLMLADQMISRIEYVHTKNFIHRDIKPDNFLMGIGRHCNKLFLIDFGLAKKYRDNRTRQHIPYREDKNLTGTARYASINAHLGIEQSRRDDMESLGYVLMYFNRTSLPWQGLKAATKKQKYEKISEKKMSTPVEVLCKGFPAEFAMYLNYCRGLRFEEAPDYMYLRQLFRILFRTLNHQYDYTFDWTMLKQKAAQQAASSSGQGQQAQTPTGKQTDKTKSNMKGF
row,Compound,residual activity
1,O=C(O)c1ccc2c3c1cccc3c(=O)n1c3ccccc3nc21,97.6%
2,N#Cc1c(NC(=O)c2cccc3ccccc23)sc2c1CCCC2,91.1%
3,FC(F)(F)c1ccc(/C=C/c2nc(COc3ccc(CCCCn4ccnn4)cc3)co2)cc1,98.4%
4,COc1cc2ncnc(Nc3ccc(O)c(Br)c3)c2cc1OC,89.6%

# Target: CSF1R (human) (UniProt P07333)
# Assay: as above
# Conditions: compound 0.5 µM; ATP 10 µM
row,Compound,residual activity
1,O=C(O)c1ccc2c3c1cccc3c(=O)n1c3ccccc3nc21,104%
2,N#Cc1c(NC(=O)c2cccc3ccccc23)sc2c1CCCC2,97.2%
3,FC(F)(F)c1ccc(/C=C/c2nc(COc3ccc(CCCCn4ccnn4)cc3)co2)cc1,103%
4,COc1cc2ncnc(Nc3ccc(O)c(Br)c3)c2cc1OC,95.3%

# Target: RPS6KA1 KD1 KD2 (human) (UniProt Q15418)
# Assay: as above
# Conditions: compound 0.5 µM; ATP 10 µM
# Chain of RPS6KA1 KD1 KD2 (human) (Q15418 whole entry, looked up): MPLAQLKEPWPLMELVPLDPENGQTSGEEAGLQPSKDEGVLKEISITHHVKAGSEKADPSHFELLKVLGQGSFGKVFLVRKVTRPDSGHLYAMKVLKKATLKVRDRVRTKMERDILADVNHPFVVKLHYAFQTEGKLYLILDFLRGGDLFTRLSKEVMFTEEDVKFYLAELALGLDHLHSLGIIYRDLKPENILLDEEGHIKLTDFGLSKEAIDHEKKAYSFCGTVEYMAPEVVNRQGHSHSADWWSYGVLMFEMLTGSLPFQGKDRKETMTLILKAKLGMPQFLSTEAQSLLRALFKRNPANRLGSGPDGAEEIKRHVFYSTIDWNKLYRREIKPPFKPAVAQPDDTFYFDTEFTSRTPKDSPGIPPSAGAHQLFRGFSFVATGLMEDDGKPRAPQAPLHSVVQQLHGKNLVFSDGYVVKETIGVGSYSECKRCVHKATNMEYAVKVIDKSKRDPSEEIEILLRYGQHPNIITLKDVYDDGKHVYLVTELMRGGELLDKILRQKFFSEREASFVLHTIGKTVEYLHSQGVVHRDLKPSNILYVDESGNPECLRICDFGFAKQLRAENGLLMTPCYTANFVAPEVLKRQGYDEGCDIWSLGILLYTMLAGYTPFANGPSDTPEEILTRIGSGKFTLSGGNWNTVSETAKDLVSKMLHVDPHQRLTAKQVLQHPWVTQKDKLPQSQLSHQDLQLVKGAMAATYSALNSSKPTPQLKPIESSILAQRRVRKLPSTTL
row,Compound,residual activity
1,O=C(O)c1ccc2c3c1cccc3c(=O)n1c3ccccc3nc21,101%
2,N#Cc1c(NC(=O)c2cccc3ccccc23)sc2c1CCCC2,86.1%
3,FC(F)(F)c1ccc(/C=C/c2nc(COc3ccc(CCCCn4ccnn4)cc3)co2)cc1,97.9%
4,COc1cc2ncnc(Nc3ccc(O)c(Br)c3)c2cc1OC,78.2%

# Target: DYRK4 (human) (UniProt Q9NR20)
# Assay: as above
# Conditions: compound 0.5 µM; ATP 10 µM
row,Compound,residual activity
1,O=C(O)c1ccc2c3c1cccc3c(=O)n1c3ccccc3nc21,95.9%
2,N#Cc1c(NC(=O)c2cccc3ccccc23)sc2c1CCCC2,98.1%
3,FC(F)(F)c1ccc(/C=C/c2nc(COc3ccc(CCCCn4ccnn4)cc3)co2)cc1,101%
4,COc1cc2ncnc(Nc3ccc(O)c(Br)c3)c2cc1OC,101%

# Target: FES (human) (UniProt P07332)
# Assay: as above
# Conditions: compound 0.5 µM; ATP 10 µM
row,Compound,residual activity
1,O=C(O)c1ccc2c3c1cccc3c(=O)n1c3ccccc3nc21,98.2%
2,N#Cc1c(NC(=O)c2cccc3ccccc23)sc2c1CCCC2,103%
3,FC(F)(F)c1ccc(/C=C/c2nc(COc3ccc(CCCCn4ccnn4)cc3)co2)cc1,102%
4,COc1cc2ncnc(Nc3ccc(O)c(Br)c3)c2cc1OC,94.9%

# Target: MAP3K14 (human) (UniProt Q99558)
# Assay: as above
# Conditions: compound 0.5 µM; ATP 10 µM
row,Compound,residual activity
1,O=C(O)c1ccc2c3c1cccc3c(=O)n1c3ccccc3nc21,94.8%
2,N#Cc1c(NC(=O)c2cccc3ccccc23)sc2c1CCCC2,111%
3,FC(F)(F)c1ccc(/C=C/c2nc(COc3ccc(CCCCn4ccnn4)cc3)co2)cc1,95.8%
4,COc1cc2ncnc(Nc3ccc(O)c(Br)c3)c2cc1OC,82.6%

# Target: WNK2 (human) (UniProt Q9Y3S1)
# Assay: as above
# Conditions: compound 0.5 µM; ATP 10 µM
row,Compound,residual activity
1,O=C(O)c1ccc2c3c1cccc3c(=O)n1c3ccccc3nc21,106%
2,N#Cc1c(NC(=O)c2cccc3ccccc23)sc2c1CCCC2,109%
3,FC(F)(F)c1ccc(/C=C/c2nc(COc3ccc(CCCCn4ccnn4)cc3)co2)cc1,95.9%
4,COc1cc2ncnc(Nc3ccc(O)c(Br)c3)c2cc1OC,102%

# Target: MST4 (human) (UniProt Q9P289)
# Assay: as above
# Conditions: compound 0.5 µM; ATP 10 µM
# Chain of MST4 (human) (Q9P289 whole entry, looked up): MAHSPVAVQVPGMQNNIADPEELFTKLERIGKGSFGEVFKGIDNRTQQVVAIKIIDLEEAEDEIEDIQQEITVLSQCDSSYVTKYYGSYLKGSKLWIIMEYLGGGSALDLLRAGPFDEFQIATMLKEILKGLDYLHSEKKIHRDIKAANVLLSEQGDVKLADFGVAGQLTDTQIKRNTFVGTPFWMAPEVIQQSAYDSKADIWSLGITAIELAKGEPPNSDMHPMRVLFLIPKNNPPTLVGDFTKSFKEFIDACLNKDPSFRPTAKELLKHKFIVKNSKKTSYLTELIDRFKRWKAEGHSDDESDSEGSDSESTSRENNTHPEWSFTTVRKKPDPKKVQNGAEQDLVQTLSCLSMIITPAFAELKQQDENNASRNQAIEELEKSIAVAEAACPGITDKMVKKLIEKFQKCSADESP
row,Compound,residual activity
1,O=C(O)c1ccc2c3c1cccc3c(=O)n1c3ccccc3nc21,97.8%
2,N#Cc1c(NC(=O)c2cccc3ccccc23)sc2c1CCCC2,102%
3,FC(F)(F)c1ccc(/C=C/c2nc(COc3ccc(CCCCn4ccnn4)cc3)co2)cc1,98%
4,COc1cc2ncnc(Nc3ccc(O)c(Br)c3)c2cc1OC,90.2%

# Target: TXK (human) (UniProt P42681)
# Assay: as above
# Conditions: compound 0.5 µM; ATP 10 µM
row,Compound,residual activity
1,O=C(O)c1ccc2c3c1cccc3c(=O)n1c3ccccc3nc21,102%
2,N#Cc1c(NC(=O)c2cccc3ccccc23)sc2c1CCCC2,97%
3,FC(F)(F)c1ccc(/C=C/c2nc(COc3ccc(CCCCn4ccnn4)cc3)co2)cc1,101%
4,COc1cc2ncnc(Nc3ccc(O)c(Br)c3)c2cc1OC,83.3%

# Target: SLK (human) (UniProt Q9H2G2)
# Assay: as above
# Conditions: compound 0.5 µM; ATP 10 µM
row,Compound,residual activity
1,O=C(O)c1ccc2c3c1cccc3c(=O)n1c3ccccc3nc21,94.1%
2,N#Cc1c(NC(=O)c2cccc3ccccc23)sc2c1CCCC2,99.2%
3,FC(F)(F)c1ccc(/C=C/c2nc(COc3ccc(CCCCn4ccnn4)cc3)co2)cc1,92.8%
4,COc1cc2ncnc(Nc3ccc(O)c(Br)c3)c2cc1OC,50.3%

# Target: ACVRL1 (human) (UniProt P37023)
# Assay: as above
# Conditions: compound 0.5 µM; ATP 10 µM
# Chain of ACVRL1 (human) (P37023 whole entry, looked up): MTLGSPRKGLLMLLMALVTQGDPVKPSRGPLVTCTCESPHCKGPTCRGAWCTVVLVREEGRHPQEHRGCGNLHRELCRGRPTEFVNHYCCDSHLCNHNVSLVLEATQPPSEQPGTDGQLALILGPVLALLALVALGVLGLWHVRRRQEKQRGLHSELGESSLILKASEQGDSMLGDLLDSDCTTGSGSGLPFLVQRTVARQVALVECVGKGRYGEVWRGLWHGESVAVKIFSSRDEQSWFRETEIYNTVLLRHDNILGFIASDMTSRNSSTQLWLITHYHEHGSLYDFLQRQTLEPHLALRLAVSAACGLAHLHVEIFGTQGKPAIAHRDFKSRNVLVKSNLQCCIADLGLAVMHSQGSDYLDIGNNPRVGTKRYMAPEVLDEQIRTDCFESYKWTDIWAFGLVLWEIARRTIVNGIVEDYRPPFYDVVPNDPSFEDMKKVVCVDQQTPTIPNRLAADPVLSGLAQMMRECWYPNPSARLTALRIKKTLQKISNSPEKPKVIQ
row,Compound,residual activity
1,O=C(O)c1ccc2c3c1cccc3c(=O)n1c3ccccc3nc21,103%
2,N#Cc1c(NC(=O)c2cccc3ccccc23)sc2c1CCCC2,107%
3,FC(F)(F)c1ccc(/C=C/c2nc(COc3ccc(CCCCn4ccnn4)cc3)co2)cc1,103%
4,COc1cc2ncnc(Nc3ccc(O)c(Br)c3)c2cc1OC,102%

# Target: LYN (human) (UniProt P07948)
# Assay: as above
# Conditions: compound 0.5 µM; ATP 10 µM
# Chain of LYN (human) (P07948 whole entry, looked up): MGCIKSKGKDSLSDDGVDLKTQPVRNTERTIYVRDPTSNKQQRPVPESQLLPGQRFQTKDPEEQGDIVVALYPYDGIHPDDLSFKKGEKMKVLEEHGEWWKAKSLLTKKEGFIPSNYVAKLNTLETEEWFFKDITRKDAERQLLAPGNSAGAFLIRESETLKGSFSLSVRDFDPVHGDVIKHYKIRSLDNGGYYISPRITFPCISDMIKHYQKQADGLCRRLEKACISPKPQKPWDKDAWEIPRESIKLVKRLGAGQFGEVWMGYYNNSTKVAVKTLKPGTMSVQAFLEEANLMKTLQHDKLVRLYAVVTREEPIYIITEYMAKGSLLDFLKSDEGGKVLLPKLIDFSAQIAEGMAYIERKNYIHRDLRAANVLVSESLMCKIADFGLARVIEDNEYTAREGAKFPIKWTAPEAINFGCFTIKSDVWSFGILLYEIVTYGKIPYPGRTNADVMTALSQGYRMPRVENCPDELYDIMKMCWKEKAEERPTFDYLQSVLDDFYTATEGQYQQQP
row,Compound,residual activity
1,O=C(O)c1ccc2c3c1cccc3c(=O)n1c3ccccc3nc21,101% and 99.4%
2,N#Cc1c(NC(=O)c2cccc3ccccc23)sc2c1CCCC2,104% and 87%
3,FC(F)(F)c1ccc(/C=C/c2nc(COc3ccc(CCCCn4ccnn4)cc3)co2)cc1,104% and 95.8%
4,COc1cc2ncnc(Nc3ccc(O)c(Br)c3)c2cc1OC,40.3% and 60%

# Target: MAP3K5 (human) (UniProt Q99683)
# Assay: as above
# Conditions: compound 0.5 µM; ATP 10 µM
row,Compound,residual activity
1,O=C(O)c1ccc2c3c1cccc3c(=O)n1c3ccccc3nc21,102%
2,N#Cc1c(NC(=O)c2cccc3ccccc23)sc2c1CCCC2,99%
3,FC(F)(F)c1ccc(/C=C/c2nc(COc3ccc(CCCCn4ccnn4)cc3)co2)cc1,97.2%
4,COc1cc2ncnc(Nc3ccc(O)c(Br)c3)c2cc1OC,98.6%

# Target: TYRO3 (human) (UniProt Q06418)
# Assay: as above
# Conditions: compound 0.5 µM; ATP 10 µM
row,Compound,residual activity
1,O=C(O)c1ccc2c3c1cccc3c(=O)n1c3ccccc3nc21,102%
2,N#Cc1c(NC(=O)c2cccc3ccccc23)sc2c1CCCC2,101%
3,FC(F)(F)c1ccc(/C=C/c2nc(COc3ccc(CCCCn4ccnn4)cc3)co2)cc1,103%
4,COc1cc2ncnc(Nc3ccc(O)c(Br)c3)c2cc1OC,78.6%

# Target: ROS1 (human) (UniProt P08922)
# Assay: as above
# Conditions: compound 0.5 µM; ATP 10 µM
row,Compound,residual activity
1,O=C(O)c1ccc2c3c1cccc3c(=O)n1c3ccccc3nc21,95.2%
2,N#Cc1c(NC(=O)c2cccc3ccccc23)sc2c1CCCC2,96.8%
3,FC(F)(F)c1ccc(/C=C/c2nc(COc3ccc(CCCCn4ccnn4)cc3)co2)cc1,93.3%
4,COc1cc2ncnc(Nc3ccc(O)c(Br)c3)c2cc1OC,65.7%

# Target: TAOK3 (human) (UniProt Q9H2K8)
# Assay: as above
# Conditions: compound 0.5 µM; ATP 10 µM
# Chain of TAOK3 (human) (Q9H2K8 whole entry, looked up): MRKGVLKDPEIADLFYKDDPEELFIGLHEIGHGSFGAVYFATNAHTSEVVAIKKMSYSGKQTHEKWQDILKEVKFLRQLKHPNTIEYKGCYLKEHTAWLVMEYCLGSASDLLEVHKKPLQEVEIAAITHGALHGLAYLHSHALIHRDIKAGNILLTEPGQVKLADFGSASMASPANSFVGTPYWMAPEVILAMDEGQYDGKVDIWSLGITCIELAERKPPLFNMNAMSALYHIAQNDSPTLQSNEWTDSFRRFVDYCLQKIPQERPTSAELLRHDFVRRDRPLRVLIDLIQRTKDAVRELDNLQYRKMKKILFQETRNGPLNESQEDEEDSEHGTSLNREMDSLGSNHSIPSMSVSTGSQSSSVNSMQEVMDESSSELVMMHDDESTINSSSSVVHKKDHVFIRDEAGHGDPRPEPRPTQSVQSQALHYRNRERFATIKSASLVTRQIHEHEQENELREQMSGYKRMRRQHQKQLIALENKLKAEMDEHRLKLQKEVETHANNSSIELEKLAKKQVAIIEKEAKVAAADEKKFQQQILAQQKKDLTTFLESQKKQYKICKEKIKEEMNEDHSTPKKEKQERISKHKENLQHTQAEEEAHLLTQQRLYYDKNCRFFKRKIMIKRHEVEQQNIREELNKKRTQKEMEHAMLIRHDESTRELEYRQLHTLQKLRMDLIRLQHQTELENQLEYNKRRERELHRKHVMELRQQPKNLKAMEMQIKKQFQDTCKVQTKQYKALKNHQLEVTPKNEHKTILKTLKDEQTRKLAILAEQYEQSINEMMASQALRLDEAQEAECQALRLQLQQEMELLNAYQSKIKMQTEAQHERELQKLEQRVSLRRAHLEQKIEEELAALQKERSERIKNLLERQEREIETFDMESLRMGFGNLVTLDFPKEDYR
row,Compound,residual activity
1,O=C(O)c1ccc2c3c1cccc3c(=O)n1c3ccccc3nc21,93.1%
2,N#Cc1c(NC(=O)c2cccc3ccccc23)sc2c1CCCC2,90.2%
3,FC(F)(F)c1ccc(/C=C/c2nc(COc3ccc(CCCCn4ccnn4)cc3)co2)cc1,93%
4,COc1cc2ncnc(Nc3ccc(O)c(Br)c3)c2cc1OC,98.8%

# Target: NEK7 (human) (UniProt Q8TDX7)
# Assay: as above
# Conditions: compound 0.5 µM; ATP 10 µM
row,Compound,residual activity
1,O=C(O)c1ccc2c3c1cccc3c(=O)n1c3ccccc3nc21,105%
2,N#Cc1c(NC(=O)c2cccc3ccccc23)sc2c1CCCC2,89.2%
3,FC(F)(F)c1ccc(/C=C/c2nc(COc3ccc(CCCCn4ccnn4)cc3)co2)cc1,94.6%
4,COc1cc2ncnc(Nc3ccc(O)c(Br)c3)c2cc1OC,101%

# Target: NUAK2 (human) (UniProt Q9H093)
# Assay: as above
# Conditions: compound 0.5 µM; ATP 10 µM
# Chain of NUAK2 (human) (Q9H093 whole entry, looked up): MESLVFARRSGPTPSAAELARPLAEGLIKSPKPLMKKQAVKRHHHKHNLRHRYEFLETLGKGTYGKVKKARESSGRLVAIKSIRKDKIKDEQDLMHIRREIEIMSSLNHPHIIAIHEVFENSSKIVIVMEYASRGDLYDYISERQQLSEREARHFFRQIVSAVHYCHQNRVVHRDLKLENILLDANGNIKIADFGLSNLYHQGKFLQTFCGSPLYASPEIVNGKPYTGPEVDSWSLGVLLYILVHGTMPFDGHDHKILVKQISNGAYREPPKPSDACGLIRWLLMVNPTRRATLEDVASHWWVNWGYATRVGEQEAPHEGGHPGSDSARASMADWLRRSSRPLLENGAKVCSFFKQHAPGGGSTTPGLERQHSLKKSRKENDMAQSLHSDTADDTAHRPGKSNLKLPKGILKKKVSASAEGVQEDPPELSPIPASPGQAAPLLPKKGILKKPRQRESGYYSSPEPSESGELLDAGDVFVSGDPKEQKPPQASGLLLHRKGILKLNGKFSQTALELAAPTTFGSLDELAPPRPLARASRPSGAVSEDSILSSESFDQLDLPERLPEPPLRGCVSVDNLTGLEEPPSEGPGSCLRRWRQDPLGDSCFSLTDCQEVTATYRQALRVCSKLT
row,Compound,residual activity
1,O=C(O)c1ccc2c3c1cccc3c(=O)n1c3ccccc3nc21,122%
2,N#Cc1c(NC(=O)c2cccc3ccccc23)sc2c1CCCC2,76.7%
3,FC(F)(F)c1ccc(/C=C/c2nc(COc3ccc(CCCCn4ccnn4)cc3)co2)cc1,101%
4,COc1cc2ncnc(Nc3ccc(O)c(Br)c3)c2cc1OC,88.3%

# Target: LIMK1 (human) (UniProt P53667)
# Assay: as above
# Conditions: compound 0.5 µM; ATP 10 µM
# Chain of LIMK1 (human) (P53667 whole entry, looked up): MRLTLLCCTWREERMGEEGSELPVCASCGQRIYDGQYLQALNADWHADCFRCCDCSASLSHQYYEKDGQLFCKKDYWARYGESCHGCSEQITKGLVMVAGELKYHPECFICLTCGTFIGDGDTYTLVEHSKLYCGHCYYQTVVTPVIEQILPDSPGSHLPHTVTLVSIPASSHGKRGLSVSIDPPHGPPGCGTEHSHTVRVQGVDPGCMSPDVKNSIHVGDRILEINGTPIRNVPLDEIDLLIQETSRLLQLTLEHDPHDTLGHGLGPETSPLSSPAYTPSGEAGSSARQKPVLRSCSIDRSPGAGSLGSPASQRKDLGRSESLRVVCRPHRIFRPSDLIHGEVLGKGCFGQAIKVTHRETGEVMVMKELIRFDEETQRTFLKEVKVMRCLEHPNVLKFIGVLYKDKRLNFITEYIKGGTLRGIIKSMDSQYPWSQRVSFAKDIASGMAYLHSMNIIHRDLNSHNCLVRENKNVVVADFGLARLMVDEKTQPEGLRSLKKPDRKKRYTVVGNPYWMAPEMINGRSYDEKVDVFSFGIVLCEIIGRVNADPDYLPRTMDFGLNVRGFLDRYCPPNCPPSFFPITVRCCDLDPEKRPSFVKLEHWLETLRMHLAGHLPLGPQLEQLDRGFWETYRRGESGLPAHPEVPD
row,Compound,residual activity
1,O=C(O)c1ccc2c3c1cccc3c(=O)n1c3ccccc3nc21,92.7%
2,N#Cc1c(NC(=O)c2cccc3ccccc23)sc2c1CCCC2,102%
3,FC(F)(F)c1ccc(/C=C/c2nc(COc3ccc(CCCCn4ccnn4)cc3)co2)cc1,99.2%
4,COc1cc2ncnc(Nc3ccc(O)c(Br)c3)c2cc1OC,85.1%

# Target: DAPK1 (human) (UniProt P53355)
# Assay: as above
# Conditions: compound 0.5 µM; ATP 10 µM
row,Compound,residual activity
1,O=C(O)c1ccc2c3c1cccc3c(=O)n1c3ccccc3nc21,40.9%
2,N#Cc1c(NC(=O)c2cccc3ccccc23)sc2c1CCCC2,109%
3,FC(F)(F)c1ccc(/C=C/c2nc(COc3ccc(CCCCn4ccnn4)cc3)co2)cc1,91.3%
4,COc1cc2ncnc(Nc3ccc(O)c(Br)c3)c2cc1OC,92%

# Target: PIM3 (human) (UniProt Q86V86)
# Assay: as above
# Conditions: compound 0.5 µM; ATP 10 µM
row,Compound,residual activity
1,O=C(O)c1ccc2c3c1cccc3c(=O)n1c3ccccc3nc21,4.96%
2,N#Cc1c(NC(=O)c2cccc3ccccc23)sc2c1CCCC2,95.3%
3,FC(F)(F)c1ccc(/C=C/c2nc(COc3ccc(CCCCn4ccnn4)cc3)co2)cc1,107%
4,COc1cc2ncnc(Nc3ccc(O)c(Br)c3)c2cc1OC,73.3%
